Laboratory results from ChEMBL document CHEMBL3885881, “DrugMatrix”.

Organism: Rattus norvegicus
Test: DrugMatrix - Regimen: Daily Repeat
Format: toxicity, organism-based, Sprague-Dawley
Set-up: regimen Daily Repeat, gender Male, age 6-8 weeks
Details: in vivo, sc, 750 mg/kg, route subcutaneous, dose level High, […]; for ABSOLUTE BASOPHIL / ABSOLUTE EOSINOPHIL / ABSOLUTE LYMPHOCYTE / ABSOLUTE MONOCYTE / ABSOLUTE SEGMENTED NEUTROPHIL / BASOPHIL / EOSINOPHIL / ERYTHROCYTE COUNT / HEMATOCRIT / HEMOGLOBIN / LEUKOCYTE COUNT / LYMPHOCYTE / MEAN CORPUSCULAR HEMOGLOBIN / MEAN CORPUSCULAR HEMOGLOBIN CONCENTRATION / MEAN CORPUSCULAR VOLUME / MONOCYTE / NEUTROPHIL / NUCLEATED RED BLOOD CELLS / PLATELET COUNT: tissue Blood; for ALANINE AMINOTRANSFERASE / ALBUMIN / ALKALINE PHOSPHATASE / ASPARTATE AMINOTRANSFERASE / BLOOD UREA NITROGEN / CARBON DIOXIDE / CHLORIDE / CHOLESTEROL / CREATINE PHOSPHOKINASE / CREATININE / GLUCOSE / LACTATE DEHYDROGENASE / LIPASE / PHOSPHORUS / POTASSIUM / SODIUM / TOTAL BILIRUBIN / TOTAL PROTEIN / URIC ACID: tissue Plasma

CC=CC(=O)N(CC)c1ccccc1C
ABSOLUTE BASOPHIL (72 h, time 3 day): 0 CELLS/uL | ABSOLUTE EOSINOPHIL (72 h, time 3 day): 39 CELLS/uL | ABSOLUTE LYMPHOCYTE (72 h, time 3 day): 11981 CELLS/uL | ABSOLUTE MONOCYTE (72 h, time 3 day): 301 CELLS/uL | ABSOLUTE SEGMENTED NEUTROPHIL (72 h, time 3 day): 1579 CELLS/uL | BASOPHIL (72 h, time 3 day): 0% | EOSINOPHIL (72 h, time 3 day): 0.33% | ERYTHROCYTE COUNT (72 h, time 3 day): 5.38 x10E6/uL | HEMATOCRIT (72 h, time 3 day): 34.23% | HEMOGLOBIN (72 h, time 3 day): 13.3 G/DL | LEUKOCYTE COUNT (72 h, time 3 day): 13.9 x10E3/uL | LYMPHOCYTE (72 h, time 3 day): 85.67% | MEAN CORPUSCULAR HEMOGLOBIN (72 h, time 3 day): 24.7 pg | MEAN CORPUSCULAR HEMOGLOBIN CONCENTRATION (72 h, time 3 day): 38.83 G/DL | MEAN CORPUSCULAR VOLUME (72 h, time 3 day): 63.7 fL | MONOCYTE (72 h, time 3 day): 2.33% | NEUTROPHIL (72 h, time 3 day): 11.67% | NUCLEATED RED BLOOD CELLS (72 h, time 3 day): 1 /100WBC | PLATELET COUNT (72 h, time 3 day): 1269.67 x10E3/uL | ALANINE AMINOTRANSFERASE (72 h, time 3 day): 53.33 u/L | ALBUMIN (72 h, time 3 day): 3.63 G/DL | ALKALINE PHOSPHATASE (72 h, time 3 day): 412 u/L | ASPARTATE AMINOTRANSFERASE (72 h, time 3 day): 76.33 u/L | BLOOD UREA NITROGEN (72 h, time 3 day): 14.33 mg/dL | CARBON DIOXIDE (72 h, time 3 day): 26 mmol/L | CHLORIDE (72 h, time 3 day): 101.33 MEQ/L | CHOLESTEROL (72 h, time 3 day): 93 mg/dL | CREATINE PHOSPHOKINASE (72 h, time 3 day): 193.67 u/L | CREATININE (72 h, time 3 day): 0.18 mg/dL | GLUCOSE (72 h, time 3 day): 142.67 mg/dL | LACTATE DEHYDROGENASE (72 h, time 3 day): 154 u/L | LIPASE (72 h, time 3 day): 10.67 u/L | PHOSPHORUS (72 h, time 3 day): 12.17 mg/dL | POTASSIUM (72 h, time 3 day): 6.36 MEQ/L | SODIUM (72 h, time 3 day): 144.1 MEQ/L | TOTAL BILIRUBIN (72 h, time 3 day): 0.17 mg/dL | TOTAL PROTEIN (72 h, time 3 day): 5.57 G/DL | URIC ACID (72 h, time 3 day): 1.23 mg/dL | ABSOLUTE BASOPHIL (120 h, time 5 day): 0 CELLS/uL | ABSOLUTE EOSINOPHIL (120 h, time 5 day): 100.67 CELLS/uL | ABSOLUTE LYMPHOCYTE (120 h, time 5 day): 12538 CELLS/uL | ABSOLUTE MONOCYTE (120 h, time 5 day): 97.33 CELLS/uL | ABSOLUTE SEGMENTED NEUTROPHIL (120 h, time 5 day): 1764 CELLS/uL | BASOPHIL (120 h, time 5 day): 0% | EOSINOPHIL (120 h, time 5 day): 0.67% | ERYTHROCYTE COUNT (120 h, time 5 day): 4.84 x10E6/uL | HEMATOCRIT (120 h, time 5 day): 29.03% | HEMOGLOBIN (120 h, time 5 day): 11.63 G/DL | LEUKOCYTE COUNT (120 h, time 5 day): 14.5 x10E3/uL | LYMPHOCYTE (120 h, time 5 day): 86.67% | MEAN CORPUSCULAR HEMOGLOBIN (120 h, time 5 day): 24.07 pg | MEAN CORPUSCULAR HEMOGLOBIN CONCENTRATION (120 h, time 5 day): 40.13 G/DL | MEAN CORPUSCULAR VOLUME (120 h, time 5 day): 60.03 fL | MONOCYTE (120 h, time 5 day): 0.67% | NEUTROPHIL (120 h, time 5 day): 12% | NUCLEATED RED BLOOD CELLS (120 h, time 5 day): 0 /100WBC | PLATELET COUNT (120 h, time 5 day): 1313.67 x10E3/uL | ALANINE AMINOTRANSFERASE (120 h, time 5 day): 73.67 u/L | ALBUMIN (120 h, time 5 day): 3.63 G/DL | ALKALINE PHOSPHATASE (120 h, time 5 day): 318 u/L | ASPARTATE AMINOTRANSFERASE (120 h, time 5 day): 113.67 u/L | BLOOD UREA NITROGEN (120 h, time 5 day): 18 mg/dL | CARBON DIOXIDE (120 h, time 5 day): 29.33 mmol/L | CHLORIDE (120 h, time 5 day): 98.67 MEQ/L | CHOLESTEROL (120 h, time 5 day): 97.33 mg/dL | CREATINE PHOSPHOKINASE (120 h, time 5 day): 403.33 u/L | CREATININE (120 h, time 5 day): 0.19 mg/dL | GLUCOSE (120 h, time 5 day): 144 mg/dL | LACTATE DEHYDROGENASE (120 h, time 5 day): 612.33 u/L | LIPASE (120 h, time 5 day): 10.67 u/L | PHOSPHORUS (120 h, time 5 day): 13.33 mg/dL | POTASSIUM (120 h, time 5 day): 5 MEQ/L | SODIUM (120 h, time 5 day): 136.53 MEQ/L | TOTAL BILIRUBIN (120 h, time 5 day): 0.1 mg/dL | TOTAL PROTEIN (120 h, time 5 day): 5.57 G/DL | URIC ACID (120 h, time 5 day): 1.7 mg/dL
